In patent publication US20220233550A1, “PARP INHIBITOR PELLET PREPARATION AND PREPARATION PROCESS THEREFOR” (BEIGENE, LTD., priority 2019, published 2022):

What was measured:
PARP-1/2 = conditions: cited from earlier work
[1] = Fluidity, judged from electron microscope images; assay type: physicochemical; conditions: electron microscope image, FIG. 1 / FIG. 2
Source text: FIG. 1 of the description is an electron microscope image of the drug substance Pamiparib, and since the drug substance BGB290 contains crystal water, is very easily agglomerated, and has a poor fluidity, which is not conducive to capsule filling, thereby affecting the industrialized mass production of a formulation. In addition, FIG. 2 of the description is an electron microscope image of the pellets of Example 1. It can be seen from the image that the pellets are round in shape, can be evenly spread under the field of view of an electron microscope, and has a good fluidity. It is sufficient to fulfil the filling of the capsule.

[2] = sesquihydrate; cited from earlier work
PARP = conditions: compared with Olaparib and other PARP inhibitors (such as Veliparib); cited from earlier work
[3] = test system: BRCA variant in vitro xenograft model; conditions: vs Olaparib; cited from earlier work
[4] = rodents; cited from earlier work
[5] = cited from earlier work
CYP = conditions: cited from earlier work
[6] = test system: cell lines with BRCA1/2 mutations or other HR defects; conditions: cited from earlier work

Row | fluidity [1] | SMILES | PARP1/2 selectivity (PARP-1/2; compared with Olaparib and other PARP inhibitors (such as Veliparib)) | chemical stability [2] | DNA capture activity (PARP) | activity relative to Olaparib [3] | tolerance [4] | treatment window [4] | brain permeability [5] | CYP inhibitory activity (CYP) | selectivity for PARP-1/2 (PARP-1/2; free compound of WO 2013/097225A1) | inhibition of proliferation [6]
1 | poor fluidity | C[C@]12CCCN1CC1=NNC(=O)c3cc(F)cc4[nH]c2c1c34 [Pamiparib, (R)-2-fluoro-10a-methyl-7,8,9,10,10a,11-hexahydro-5,6,7a,11-tetraazacyclohepta[def]cyclopenta[a]fluoren-4(5H)-one sesquihydrate] | better PARP1/2 selectivity | excellent chemical stability | stronger DNA capture activity | about 16 times | good tolerance | about 10 folds | significant brain permeability | no CYP inhibitory activity |  | 
2 |  | C[C@]12CCCN1CC1=NNC(=O)c3cc(F)cc4[nH]c2c1c34 [drawing 1, (R)-2-fluoro-10a-methyl-7,8,9,10,10a,11-hexahydro-5,6,7a,11-tetraazacyclohepta[def]cyclopenta[a]fluoren-4(5H)-one] |  |  |  |  |  |  |  |  | high selectivity for PARP-1/2 | can effectively inhibit the proliferation
